Measured values reported in patent publication US9695155B2, “Herbicidal substituted pyrimidinyloxy benzene compounds” (E. I. DU PONT DE NEMOURS AND COMPANY, priority 2013, dated 2017).

Experiments:
wild mustard = assay: Test D preemergence; format: in vivo, Sinapis arvensis; conditions: Brassica, pre-emergence; for pest or weed control at 16 g/ha: 16 g ai/ha, scale 0 (no effect) to 100 (complete control), read-out: Plant response rating, Mustard, Wild; for pest or weed control at 31 g/ha: 31 g ai/ha; for pest or weed control at 31 g/ha / pest or weed control at 62 g/ha / pest or weed control at 125 g/ha: scale 0-100, read-out: Plant response rating, Mustard, Wild; for pest or weed control at 62 g/ha: 62 g ai/ha; for pest or weed control at 125 g/ha: 125 g ai/ha
Source text: (§1) Seeds of plant species selected from bluegrass (annual bluegrass, Poa annua), blackgrass (Alopecurus myosuroides), canarygrass (littleseed canarygrass, Phalaris minor), chickweed (common chickweed, Stellaria media), galium (catchweed bedstraw, Galium aparine), bromegrass, downy (downy bromegrass, Bromus tectorum), field poppy (Papaver rhoeas), field violet (Viola arvensis), green foxtail (Setaria viridis), deadnettle (henbit deadnettle, Lamium amplexicaule), Italian ryegrass (Lolium multiflorum), kochia (Kochia scoparia), lambsquarters (Chenopodium album), oilseed rape (Brassica napus), pigweed (Amaranthus retroflexus), chamomile (scentless chamomile, Matricaria inodora), Russian thistle (Salsola kali), speedwell (bird's-eye speedwell, Veronica persica), spring barley (Hordeum vulgare), spring wheat (Triticum aestivum), wild buckwheat (Polygonum convolvulus), wild mustard (Sinapis arvensis), wild oat (Avena fatua), wild radish (Raphanus raphanistrum), windgrass (Apera spica-venti), winter barley (Hordeum vulgare), and winter wheat (Triticum aestivum) were planted into a silt loam soil and treated preemergence with test chemicals formulated in a non-phytotoxic solvent mixture which included a surfactant.
(§2) At the same time, these species were planted in pots containing Redi-Earth® planting medium (Scotts Company, 14111 Scottslawn Road, Marysville, Ohio 43041) comprising spaghnum peat moss, vermiculite, wetting agent and starter nutrients and treated with postemergence applications of the test chemicals formulated in the same manner. Plants ranged in height from 2 to 18 cm (1- to 4-leaf stage). Treated plants and controls were maintained in a controlled growth environment for 7 to 21 days after which time all species were compared to controls and visually evaluated. Plant response ratings, summarized in Table D, are based on a scale of 0 to 100 where 0 is no effect and 100 is complete control. A dash (-) response means no test result.

kochia = assay: Test D preemergence; format: in vivo, Kochia scoparia; conditions: Bassia scoparia, pre-emergence; for pest or weed control at 16 g/ha: 16 g ai/ha, scale 0 (no effect) to 100 (complete control), read-out: Plant response rating, Kochia; for pest or weed control at 31 g/ha: 31 g ai/ha; for pest or weed control at 31 g/ha / pest or weed control at 62 g/ha / pest or weed control at 125 g/ha: scale 0-100, read-out: Plant response rating, Kochia; for pest or weed control at 62 g/ha: 62 g ai/ha; for pest or weed control at 125 g/ha: 125 g ai/ha
Source text: as §1, §2

surinam grass = assay: Test E preemergence; format: in vivo, Brachiaria decumbens; conditions: for Surinam Grass plant response rating: scale 0 to 100 (0 no effect, 100 complete control)
How it was run: (§3)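 Test chemicals formulated in a non-phytotoxic solvent mixture containing a surfactant were applied preemergence to seeds in silt loam soil or postemergence to plants at the 1- to 4-leaf stage in potting mix. After 14 to 21 days in a greenhouse, injury was visually rated against controls on a 0-100 scale (0 = no effect, 100 = complete control).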

barnyardgrass = assay: Test E preemergence; format: in vivo, Echinochloa crus-galli; conditions: preemergence; for Barnyardgrass plant response rating: scale 0 to 100 (0 no effect, 100 complete control)
How it was run: as §3

lambsquarters = assay: Test E preemergence; format: in vivo, Chenopodium album; conditions: for Lambsquarters plant response rating: scale 0 to 100 (0 no effect, 100 complete control)
How it was run: as §3

large (Lg) crabgrass = assay: Test E preemergence; format: in vivo, Digitaria sanguinalis; conditions: for Crabgrass, Large plant response rating: scale 0 to 100 (0 no effect, 100 complete control)
How it was run: as §3

velvetleaf = assay: Test E preemergence; format: in vivo, Abutilon theophrasti; conditions: for Velvetleaf plant response rating: scale 0 to 100 (0 no effect, 100 complete control)
How it was run: as §3

Brazilian crabgrass = assay: Test E preemergence; format: in vivo, Digitaria horizontalis; conditions: for Crabgrass, Brazil plant response rating: scale 0 to 100 (0 no effect, 100 complete control)
How it was run: as §3

arrowleaf sida = assay: Test E preemergence; format: in vivo, Sida rhombifolia; conditions: preemergence; for Arrowleaf Sida plant response rating: scale 0 to 100 (0 no effect, 100 complete control)
How it was run: as §3

[1] = 125 g ai/ha, scale 0 to 100, 0 no effect, 100 complete control

## Fc1cccc(Oc2ncc(Cl)cn2)c1-n1cc(Br)cn1 [Compound 178, 2-[2-(4-bromo-1H-pyrazol-1-yl)-3-fluorophenoxy]-5-chloropyrimidine]
Wild mustard
  pest or weed control at 16 g/ha: 25%
  pest or weed control at 31 g/ha: 35%
  pest or weed control at 62 g/ha: 95%
  pest or weed control at 125 g/ha: 95%
kochia
  pest or weed control at 16 g/ha: 0%
  pest or weed control at 31 g/ha: 35%
  pest or weed control at 62 g/ha: 85%
  pest or weed control at 125 g/ha: 100%

## FC(F)(F)COc1cnn(-c2ccccc2Oc2ncc(Cl)cn2)c1 [Compound 138, 5-chloro-2-[2-[4-(2,2,2-trifluoroethoxy)-1H-pyrazol-1-yl]phenoxy]pyrimidine]
Wild mustard
  pest or weed control at 16 g/ha: 55%
  pest or weed control at 31 g/ha: 65%
  pest or weed control at 62 g/ha: 100%
  pest or weed control at 125 g/ha: 100%
kochia
  pest or weed control at 16 g/ha: 20%
  pest or weed control at 31 g/ha: 20%
  pest or weed control at 62 g/ha: 35%
  pest or weed control at 125 g/ha: 55%
Surinam grass; 16 g ai/ha
  Surinam Grass plant response rating: 0
Surinam grass; 31 g ai/ha
  Surinam Grass plant response rating: 0
Surinam grass; 62 g ai/ha
  Surinam Grass plant response rating: 20
Surinam grass; [1]
  Plant response rating, Surinam Grass: 50
barnyardgrass; 16 g ai/ha
  Barnyardgrass plant response rating: 0
barnyardgrass; 31 g ai/ha
  Barnyardgrass plant response rating: 0
barnyardgrass; 62 g ai/ha
  Barnyardgrass plant response rating: 15
barnyardgrass; [1]
  Plant response rating, Barnyardgrass: 60
lambsquarters; 16 g ai/ha
  Lambsquarters plant response rating: 0
lambsquarters; 31 g ai/ha
  Lambsquarters plant response rating: 50
lambsquarters; 62 g ai/ha
  Lambsquarters plant response rating: 100
lambsquarters; [1]
  Plant response rating, Lambsquarters: 100
Large (Lg) crabgrass; 16 g ai/ha
  Crabgrass, Large plant response rating: 0
Large (Lg) crabgrass; 31 g ai/ha
  Crabgrass, Large plant response rating: 70
Large (Lg) crabgrass; 62 g ai/ha
  Crabgrass, Large plant response rating: 98
Large (Lg) crabgrass; [1]
  Plant response rating, Crabgrass, Large: 100
velvetleaf; 16 g ai/ha
  Velvetleaf plant response rating: 40
velvetleaf; 31 g ai/ha
  Velvetleaf plant response rating: 70
velvetleaf; 62 g ai/ha
  Velvetleaf plant response rating: 90
velvetleaf; [1]
  Plant response rating, Velvetleaf: 100
Brazilian crabgrass; 16 g ai/ha
  Crabgrass, Brazil plant response rating: 0
Brazilian crabgrass; 31 g ai/ha
  Crabgrass, Brazil plant response rating: 40
Brazilian crabgrass; 62 g ai/ha
  Crabgrass, Brazil plant response rating: 90
Brazilian crabgrass; [1]
  Plant response rating, Crabgrass, Brazil: 98
Arrowleaf sida; 16 g ai/ha
  Arrowleaf Sida plant response rating: 0
Arrowleaf sida; 31 g ai/ha
  Arrowleaf Sida plant response rating: 0
Arrowleaf sida; 62 g ai/ha
  Arrowleaf Sida plant response rating: 40
Arrowleaf sida; [1]
  Plant response rating, Arrowleaf Sida: 100
